IC50 data for 51 molecules are collected here from patent US8546442B2, “Pyrazolopiperidine compounds as CCR1 receptor antagonists” (Boehringer Ingelheim International GmbH, priority 2010, dated 2013).

Structures are written as SMILES. pIC50: −log10 of the molar value.

The experiment has as its target T1, CCR1 (Homo sapiens, UniProt P32246).
T1 sequence (P32246 1-355): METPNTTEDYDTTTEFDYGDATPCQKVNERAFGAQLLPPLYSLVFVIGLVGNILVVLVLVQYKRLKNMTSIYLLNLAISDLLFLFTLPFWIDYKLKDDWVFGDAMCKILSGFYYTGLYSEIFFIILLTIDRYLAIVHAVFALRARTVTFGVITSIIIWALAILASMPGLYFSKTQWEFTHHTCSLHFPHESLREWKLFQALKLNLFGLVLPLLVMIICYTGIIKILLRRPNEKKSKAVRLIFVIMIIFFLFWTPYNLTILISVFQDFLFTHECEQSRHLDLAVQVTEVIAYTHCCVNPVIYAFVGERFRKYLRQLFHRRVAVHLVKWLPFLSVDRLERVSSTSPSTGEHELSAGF
The experiment in a line: calcium flux in CCR1 transfected cells, Method B (Calcium 4 dye, HAMAMATSU FDSS6000). Particulars: cells stably expressing recombinant CCR1 and G-alpha-16, MIP-1alpha at EC80. The experiment is classed as cell-based. Here is the method:
Compounds are assessed for the ability to block the interaction of CCR1 and MIP-1α in a functional cellular assay measuring calcium flux in CCR1 transfected cells.
Method B: Non-adherent cells purchased from Chemicon Corporation (HTS005C), stably expressing recombinant CCR1 and G-alpha-16 are grown in RPMI 1640 medium (Mediatech 10-080-CM) supplemented with 10% FBS, 0.4 mg/mL Geneticin and penicillin/streptomycin. On the day of the assay, the cells are loaded with Calcium 4 dye (Molecular Devices R7448) with Probenecid (Invitrogen P346400) at 8E5 cells/mL for 1 hour at room temperature. After 1 hour, they are seeded in a 384-well tissue culture-treated plate at a density of 20,000 cells/well. Appropriately diluted test compound is added to the well to achieve a top concentration of 3,000 nM (diluted 4-fold with 10 doses total). The final concentration of DMSO is 1%. The buffer is HBSS (Invitrogen 14025) with 20 mM HEPES at pH 7.4. The cells incubate 30 minutes at 37 C and then 30 minutes at room temperature. The plates are transferred to the HAMAMATSU FDSS6000 where MIP-1alpha in 1% BSA is added at the EC80 final concentration. All plates must be read within 4 hours of the start of dye-loading. Wells+/−MIP-1alpha containing diluted DMSO instead of compound serve as the controls. Data are analyzed using Activity Base software.
For the molecule `C[C@H](NC(=O)N1CCCc2c1cnn2-c1ccc(F)cc1)c1ccc(S(C)(=O)=O)nc1` [Example 52], the pIC50 is 6.89.

Turning to `CS(=O)(=O)c1cc(CNC(=O)N2CCCc3c2cnn3-c2ccc(F)cc2)ccn1` [Example 32], the pIC50 was 7.47. Take `CCC[C@H](NC(=O)N1CCCc2c1cnn2-c1ccc(F)c(Cl)c1)c1ccnc(S(C)(=O)=O)c1` [Example 86]: the pIC50 is 8.70.

As for `CCC[C@H](NC(=O)N1CCc2c1cnn2-c1ccc(F)cc1)c1ccnc(S(C)(=O)=O)c1` [Example 87, 1-(4-Fluorophenyl)-5,6-dihydro-1H-pyrrolo[3,2-c]pyrazole-4-carboxylic acid [(S)-1-(2-methanesulfonyl-pyridin-4-yl)-butyl]-amide], the pIC50 is 8.00. To `CCC[C@H](NC(=O)N1c2cnn(-c3ccc(F)cc3)c2CCC1C(F)(F)F)c1ccc(O)c(S(C)(=O)=O)c1` (stereo partly drawn) [Example 96] belongs 8.15.

Regarding `CCC[C@H](NC(=O)N1CC(C)Cc2c1cnn2-c1ccc(F)cc1)c1ccnc(S(C)(=O)=O)c1` (stereo partly drawn) [Example 102], the pIC50 was 9.22. To `CCC[C@H](NC(=O)N1c2cnn(-c3ccc(F)cc3)c2CCC1C(F)(F)F)c1ccc(S(C)(=O)=O)cc1F` (stereo partly drawn) [Example 69] belongs 7.96. For the molecule `CCC[C@H](NC(=O)N1CCCCc2c1cnn2-c1ccc(F)cc1)c1ccnc(S(C)(=O)=O)c1` [Example 72], the pIC50 is 6.46. The same measure for `C[C@H](NC(=O)N1CCCc2c1cnn2-c1ccc(F)cc1)c1ccccc1` [Example 2]: 6.34. To `CNS(=O)(=O)c1cccc(CNC(=O)N2CCCc3c2cnn3-c2ccc(F)cc2)c1` [Example 29] belongs 7.80; to `CCC[C@H](NC(=O)N1c2cnn(-c3ccc(Cl)cc3)c2CCC1C)c1ccnc(S(C)(=O)=O)c1` (stereo partly drawn) [Example 93], 7.74; to `CC[C@H](NC(=O)N1c2cnn(-c3ccc(F)cc3)c2CCC1C(F)(F)F)c1ccc(OC)c(S(C)(=O)=O)c1` (stereo partly drawn) [Example 82], 7.64. Take `CC[C@H](NC(=O)N1c2cnn(-c3ccc(F)cc3)c2CCC1C(F)(F)F)c1ccnc(S(C)(=O)=O)c1` (stereo partly drawn) [Example 58]: the pIC50 is 7.08. `CCC[C@H](NC(=O)N1CC(C(F)(F)F)Cc2c1cnn2-c1ccc(F)cc1)c1ccnc(S(C)(=O)=O)c1` (stereo partly drawn) [Example 78]: the pIC50 was 8.40. The same measure for `CCC[C@H](NC(=O)N1CCCc2c1c(C)nn2-c1ccc(F)cc1)c1cncc(S(C)(=O)=O)c1` [Example 99]: 5.82; for `CCC[C@H](NC(=O)N1CC(C)(C)Cc2c1cnn2-c1ccc(F)cc1)c1ccnc(S(C)(=O)=O)c1` [Example 103]: 9.15; for `O=C(NCc1ccccc1Cl)N1CCCc2c1cnn2-c1ccc(F)cc1` [Example 12]: 6.86. `CCC[C@H](NC(=O)N1c2cnn(-c3ccc(F)cc3)c2CC1C)c1ccnc(S(C)(=O)=O)c1` (stereo partly drawn) [Example 108, 1-(4-Fluorophenyl)-5-methyl-5,6-dihydro-1H-pyrrolo[3,2-c]pyrazole-4-carboxylic acid [(S)-1-(2-methanesulfonyl-pyridin-4-yl)-butyl]-amide]: the pIC50 is 8.05.

With `CCC[C@H](NC(=O)N1CC(C(=O)O)Cc2c1cnn2-c1ccc(F)cc1)c1ccnc(S(C)(=O)=O)c1` (stereo partly drawn) [Example 115, 1-(4-Fluorophenyl)-4-[(S)-1-(2-methanesulfonyl-pyridin-4-yl)-butylcarbamoyl]-4,5,6,7-tetrahydro-1H-pyrazolo[4,3-b]pyridine-6-carboxylic acid], the pIC50 was 7.64. To `CCC[C@H](NC(=O)N1c2cnn(-c3ccc(F)cc3)c2CCC1C)c1cccc(S(C)(=O)=O)n1` (stereo partly drawn) [Example 107] belongs 8.10; to `CCC[C@H](NC(=O)N1c2cnn(-c3ccc(F)cc3)c2CCC1C(F)(F)F)c1ccc(S(C)(=O)=O)c(OC)c1` (stereo partly drawn) [Example 105], 8.30. To `CCC[C@H](NC(=O)N1CC(C(=O)NCCO)Cc2c1cnn2-c1ccc(F)cc1)c1ccnc(S(C)(=O)=O)c1` (stereo partly drawn) [Example 117] belongs 9.00. For `O=C(NCc1cccc(C(F)(F)F)c1)N1CCCc2c1cnn2-c1ccc(F)cc1` [Example 21, 1-(4-Fluorophenyl)-N-[3-(trifluoromethyl)benzyl]-1,5,6,7-tetrahydro-4H-pyrazolo[4,3-b]pyridine-4-carboxamide], the negative logarithm of the IC50 (pIC50) is 9.00. In the case of `O=C(Nc1cccc(C(F)(F)F)c1)N1CCCc2c1cnn2-c1ccc(F)cc1` [Example 15], the pIC50 is 6.94. To `O=C(NCc1ccc(Cl)cc1)N1CCCc2c1cnn2-c1ccc(F)cc1` [Example 13] belongs 7.35; to `CCC[C@H](NC(=O)N1CCCCc2c1cnn2-c1ccc(F)cc1)c1cncc(S(C)(=O)=O)c1` [Example 75], 6.19.

In the case of `CCC[C@H](NC(=O)N1CCCc2c1cnn2-c1ccc(Cl)cc1)c1ccnc(S(C)(=O)=O)c1` [Example 71], the pIC50 was 9.52.

On to `COc1ccc(CNC(=O)N2CCCc3c2cnn3-c2ccc(F)cc2)cc1` [Example 10], for which the pIC50 was 6.58. `CCC[C@H](NC(=O)N1c2cnn(-c3ccc(F)cc3)c2CCC1C(F)(F)F)c1ccc(OC)c(S(C)(=O)=O)c1` (stereo partly drawn) [Example 95]: the pIC50 was 8.22. Consider `O=C(NCc1ccc(Cl)c(Cl)c1)N1CCCc2c1cnn2-c1ccc(F)cc1` [Example 17], for which the pIC50 was 9.00. Regarding `O=C(NCc1ccc(S(=O)(=O)N2CCOCC2)cc1)N1CCCc2c1cnn2-c1ccc(F)cc1` [Example 27], the pIC50 is 7.17. `COc1cccc(CNC(=O)N2CCCc3c2cnn3-c2ccc(F)cc2)c1` [Example 20]: the pIC50 was 7.04. In the case of `CC[C@H](NC(=O)N1CCc2c1cnn2-c1ccc(F)cc1)c1cccc(S(C)(=O)=O)c1` [Example 89], the pIC50 is 7.47. The same measure for `C[C@@H](NC(=O)N1CCCc2c1cnn2-c1ccc(F)cc1)c1ccccc1` [Example 6]: 6.90; for `CCC[C@H](NC(=O)N1CC(C(=O)OCC)Cc2c1cnn2-c1ccc(F)cc1)c1ccnc(S(C)(=O)=O)c1` (stereo partly drawn) [Example 114, 1-(4-Fluorophenyl)-4-[(S)-1-(2-methanesulfonyl-pyridin-4-yl)-butylcarbamoyl]-4,5,6,7-tetrahydro-1H-pyrazolo[4,3-b]pyridine-6-carboxylic acid ethyl ester]: 9.15.

For the molecule `O=C(NCc1cccc(F)c1)N1CCCc2c1cnn2-c1ccc(F)cc1` [Example 9], the pIC50 is 6.97.

`CCC[C@H](NC(=O)N1c2cnn(-c3ccc(F)cc3)c2CCC1C(F)(F)F)c1cc(S(C)(=O)=O)ccc1F` (single isomer, unassigned) [Example 77]: the pIC50 is 7.43. The same measure for `O=C(NCc1ccccc1F)N1CCCc2c1cnn2-c1ccc(F)cc1` [Example 8]: 6.58; for `CS(=O)(=O)c1ccc(CNC(=O)N2CCCc3c2cnn3-c2ccc(F)cc2)cc1O` [Example 43, 1-(4-Fluorophenyl)-1,5,6,7-tetrahydro-pyrazolo[4,3-b]pyridine-4-carboxylic acid 3-hydroxy-4-methanesulfonyl-benzylamide]: 7.60. To `O=C(NCc1ccccc1)N1CCCc2c1cnn2-c1ccc(F)cc1` [Example 19] belongs 6.40; to `O=C(NCc1ccc(Br)cc1)N1CCCc2c1cnn2-c1ccc(F)cc1` [Example 37], 7.40. In the case of `CC[C@H](NC(=O)N1c2cnn(-c3ccc(F)cc3)c2CCC1C(F)(F)F)c1ccc(S(C)(=O)=O)c(O)c1` (stereo partly drawn) [Example 85], the pIC50 was 7.64. Take `CCC[C@H](NC(=O)N1c2cnn(-c3ccc(F)cc3)c2CCC1C)c1ccnc(S(C)(=O)=O)c1` (single isomer, unassigned) [Example 81]: the pIC50 is 8.40. On to `Cc1cccc(CNC(=O)N2CCCc3c2cnn3-c2ccc(F)cc2)c1` [Example 18], for which the pIC50 was 6.88. Take `CCC[C@H](NC(=O)N1CC(C(F)(F)F)Cc2c1cnn2-c1ccc(F)cc1)c1ccnc(S(C)(=O)=O)c1` (stereo partly drawn) [Example 79]: the pIC50 was 8.70. To `CCC[C@H](NC(=O)N1c2cnn(-c3ccc(F)cc3)c2CCC1C(F)(F)F)c1cc(F)cc(S(C)(=O)=O)c1` (stereo partly drawn) [Example 90] belongs 8.22. Regarding `Cc1ccccc1CNC(=O)N1CCCc2c1cnn2-c1ccc(F)cc1` [Example 4], the pIC50 is 6.55. To `C[C@H](NC(=O)N1CC(C(F)(F)F)Cc2c1cnn2-c1ccc(F)cc1)c1ccnc(S(C)(=O)=O)c1` (stereo partly drawn) [Example 83] belongs 5.90.

As for `CCC[C@H](NC(=O)N1c2cnn(-c3ccc(F)cc3)c2CCC1C(F)(F)F)c1cccc(S(C)(=O)=O)n1` (stereo partly drawn) [Example 94], the pIC50 is 7.24. `CCC[C@H](NC(=O)N1CCCc2c1cnn2C1CCCC1)c1ccnc(S(C)(=O)=O)c1` [Example 67]: the pIC50 was 6.71. Take `Cc1ccc(CNC(=O)N2CCCc3c2cnn3-c2ccc(F)cc2)cc1` [Example 5]: the pIC50 is 7.05.
